Experiment [1] deals with T1, PKCα (Homo sapiens, UniProt P17252).
T1 construct: His6; purchased Millipore; host or cells: baculovirus in Sf21 cells
The experiment can be described thus: In vitro enzyme assay (time-resolved fluorescence kinase assay), PKCα, 100 μM ATP. Format: biochemical. The following applies: 100 μM ATP; read-out: PKCα enzyme IC50. In outline:
(§1)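 Read-out was time-resolved fluorescence, corrected for a minus-enzyme blank and converted to percent activity relative to enzyme without drug. They were stopped with EDTA.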

Experiment [2] has as its target T2, PKCθ (Homo sapiens, UniProt Q04759).
T2 construct: His6; purchased Millipore; host or cells: baculovirus in Sf21 cells
The experiment can be described thus: In vitro enzyme assay (time-resolved fluorescence kinase assay), PKCθ, 100 μM ATP. Format: biochemical. In outline:
as §1

Experiment [3] relates to CD3/CD28 induced IL-2 in human T-Blasts. The experiment can be described thus: T-Blasts CD3/CD28 induced IL-2 assay. Format: cell-based. The following applies: read-out: CD3/CD28-stimulated IL2 in T-blasts EC50. In outline: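 IL-2 in supernatants read after 24 h 37° C stimulation of human PHA T-blasts (2×10^5/well) with anti-CD3/anti-CD28 at 5 μg/mL final. Duplicate eight-point, 1/3-step compound series added 30 min before stimulus; residual cells checked by MTT for toxicity.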

Each structure is given as a SMILES string.

T2 sequence (Q04759 whole entry): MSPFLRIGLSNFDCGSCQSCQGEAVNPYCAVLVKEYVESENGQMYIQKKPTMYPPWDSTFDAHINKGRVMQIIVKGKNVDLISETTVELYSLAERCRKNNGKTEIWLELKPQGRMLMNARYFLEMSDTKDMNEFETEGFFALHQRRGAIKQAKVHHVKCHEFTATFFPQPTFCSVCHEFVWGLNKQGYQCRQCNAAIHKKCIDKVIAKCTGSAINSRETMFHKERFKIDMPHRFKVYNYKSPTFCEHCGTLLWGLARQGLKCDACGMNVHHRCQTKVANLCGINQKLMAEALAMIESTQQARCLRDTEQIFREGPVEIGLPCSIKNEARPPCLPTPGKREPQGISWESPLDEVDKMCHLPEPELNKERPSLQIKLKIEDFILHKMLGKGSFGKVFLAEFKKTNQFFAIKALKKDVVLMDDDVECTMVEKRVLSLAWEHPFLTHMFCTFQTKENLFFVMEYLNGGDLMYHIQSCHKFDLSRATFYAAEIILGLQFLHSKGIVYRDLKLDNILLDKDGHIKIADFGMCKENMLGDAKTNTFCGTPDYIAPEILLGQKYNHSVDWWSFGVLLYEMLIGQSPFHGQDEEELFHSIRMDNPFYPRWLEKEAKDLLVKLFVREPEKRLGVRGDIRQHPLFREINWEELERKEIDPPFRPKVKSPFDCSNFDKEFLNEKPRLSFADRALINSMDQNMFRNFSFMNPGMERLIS

In general, IC50 refers to the midpoint of a concentration-inhibition curve. Consider `CC1C(=O)NN=C2COc3cc(-c4ccc(C(C)(C)C)cc4)c(NC4CNC4)cc3N21` (racemic) [Example 26], for which the IC50 in experiment [1] fell in the range of 1000 to 10000 nM; in experiment [2] it was 250 to 1000 nM. In addition, the EC50 in experiment [3] was below 250 nM.
In the case of `CC1C(=O)NN=C2COc3cc(Nc4ccccc4)c(NC4CNC4)cc3N21` (stereo not drawn) [Example 128, 6-(Azetidin-3-ylamino)-4-methyl-7-phenylamino-2,10-dihydro-9-oxa-1,2,4a-triaza-phenanthren-3-one trifluoroacetic acid], the IC50 in experiment [1] is 1000 to 10000 nM; in experiment [2], below 250 nM. In experiment [3], the EC50 was in the range of 250 to 1000 nM.
Regarding `CC(C)c1cc2c(cc1NC1CNC1)N1C(=NNC(=O)[C@@H]1C)CO2` (single isomer, unassigned) [Example 57-2, trifluoroacetic acid], the IC50 in experiment [1] lay in the range of 1000 to 10000 nM; in experiment [2] it was 250 to 1000 nM. Besides, the EC50 in experiment [3] lay within 1000 to 10000 nM.
`CC1C(=O)NN=C2COc3cc(C4CC4)c(OC4CNC4)cc3N21` (stereo not drawn) [Example 65, 6-(Azetidin-3-yloxy)-7-cyclopropyl-4-methyl-2,10-dihydro-9-oxa-1,2,4a-triaza-phenanthren-3-one trifluoroacetic acid]: the IC50 in experiment [1] was 1000 to 10000 nM; in experiment [2] it was below 250 nM. Besides, the EC50 in experiment [3] was below 250 nM.
Consider `CC1C(=O)NN=C2COc3ccc(CC4CNC4)cc3N21` (stereo not drawn) [Example 78, 6-Azetidin-3-ylmethyl-4-methyl-2,10-dihydro-9-oxa-1,2,4a-triaza-phenanthren-3-one trifluoroacetic acid], for which the IC50 in experiment [1] was 1000 to 10000 nM; in experiment [2] it was below 250 nM. Further, the EC50 in experiment [3] was below 250 nM.
In the case of `C[C@@H]1C(=O)NN=C2COc3cc(F)c(OC4CNC4)cc3N21` [Example 124, (R)-9-(Azetidin-3-yloxy)-8-fluoro-1-methyl-3,5-dihydrobenzo[5,6][1,4]oxazino[3,4-c][1,2,4]triazin-2(1H)-one trifluoroacetic acid], the figures for the IC50 in experiment [1] and in experiment [2] were 1000 to 10000 nM and below 250 nM, respectively. Also, the EC50 in experiment [3] was below 250 nM.
`C[C@@H]1C(=O)NN=C2COc3cc(-c4ccccc4)c(NC4CNC4)cc3N21` (single isomer, unassigned) [Example 1-1, trifluoroacetic acid]: the IC50 was 1000 to 10000 nM in experiment [1] and below 250 nM in experiment [2]. In experiment [3], the EC50 was below 250 nM.
Consider `C[C@@H]1C(=O)NN=C2COc3cc(-c4ccccc4F)c([C@@H](C)C4(C)CN(CC5CCOCC5)C4)cc3N21` [Example 142], for which the IC50 in experiment [1] is 1000 to 10000 nM; in experiment [2], below 250 nM. Moreover, the EC50 in experiment [3] fell in the range of 250 to 1000 nM.
As for `CC1C(=O)NN=C2COc3cc(-c4ccc(N(C)C)cc4)c(NC4CNC4)cc3N21` (racemic) [Example 19], the IC50 in experiment [1] was 1000 to 10000 nM; in experiment [2], 250 to 1000 nM. The EC50 in experiment [3] was below 250 nM.
On to `CC(C)c1cc2c(cc1OC1CNC1)N1C(=NNC(=O)[C@H]1C)CO2` (single isomer, unassigned) [Example 96, trifluoroacetic acid], for which the results for the IC50 in experiment [1] and in experiment [2] were 1000 to 10000 nM and below 250 nM, respectively. Further, the EC50 in experiment [3] was below 250 nM.
Consider `CC[C@H]1CNCCN1c1cc2c(cc1-c1ccccc1F)OCC1=NNC(=O)[C@@H](C)N12` [Example 227], for which the results for the IC50 in experiment [1] and in experiment [2] were 1000 to 10000 nM and below 250 nM, respectively. Also, the EC50 in experiment [3] was 250 to 1000 nM.
The like results for `C[C@@H]1C(=O)NN=C2COc3cc(-c4ccccc4F)c(N(C)C4(C)CN(CCC(F)(F)F)C4)cc3N21` [Example 193] were, in that order, 1000 to 10000 nM, below 250 nM and 250 to 1000 nM.
Turning to `Cc1ccc(-c2cc3c(cc2NC2CNC2)N2C(=NNC(=O)C2C)CO3)c(F)c1` (racemic) [Example 12], the IC50 is 1000 to 10000 nM in experiment [1] and below 250 nM in experiment [2]. The EC50 in experiment [3] was below 250 nM.
In the case of `CC1C(=O)NN=C2COc3cc(C4CC4)c(NC4CNC4)cc3N21` (racemic) [Example 49], the IC50 in experiment [1] was 1000 to 10000 nM; in experiment [2], below 250 nM. Further, the EC50 in experiment [3] is below 250 nM.
With `C[C@@H]1C(=O)NN=C2COc3cc(-c4ccccc4F)c([C@@H](C)C4(C)CN(C[C@@H](C)O)C4)cc3N21` [Example 140], the IC50 in experiment [1] is 250 to 1000 nM; in experiment [2] it was below 250 nM. Also, the EC50 in experiment [3] was below 250 nM.
As to `CC1C(=O)NN=C2COc3cc(-c4cccc5ccccc45)c(NC4CNC4)cc3N21` (racemic) [Example 52], the IC50 is 1000 to 10000 nM in experiment [1] and below 250 nM in experiment [2]. The EC50 in experiment [3] lay in the range of 250 to 1000 nM.
As for `C[C@@H]1C(=O)NN=C2COc3cc(-c4ccccc4CO)c(N(C)C4(C)CN(CCO)C4)cc3N21` [Example 195], the IC50 in experiment [1] is 1000 to 10000 nM; in experiment [2], below 250 nM. The EC50 in experiment [3] was below 250 nM.
Take `C[C@@H]1C(=O)NN=C2COc3cc(-c4c(F)cccc4N4CCNCC4)ccc3N21` [Example 130, (R)-7-(2-Fluoro-6-piperazin-1-yl-phenyl)-4-methyl-2,10-dihydro-9-oxa-1,2,4a-triaza-phenanthren-3-one trifluoroacetic acid]: the IC50 lay within 1000 to 10000 nM in experiment [1] and 250 to 1000 nM in experiment [2]. In addition, the EC50 in experiment [3] lay in the range of 250 to 1000 nM.
Take `CC1C(=O)NN=C2COc3ccc(N4CCCC4CN)cc3N21` (stereo not drawn) [Example 117, 6-(2-Aminomethyl-pyrrolidin-1-yl)-4-methyl-2,10-dihydro-9-oxa-1,2,4a-triaza-phenanthren-3-one trifluoroacetic acid]: the figures for the IC50 in experiment [1] and in experiment [2] were 1000 to 10000 nM and below 250 nM, respectively. In addition, the EC50 in experiment [3] lay in the range of 250 to 1000 nM.
Taken in the same sequence, the figures for `CC1C(=O)NN=C2COc3cc(OCc4ccccc4)c(NC4CNC4)cc3N21` (stereo not drawn) [Example 127, 6-(Azetidin-3-ylamino)-7-benzyloxy-4-methyl-2,10-dihydro-9-oxa-1,2,4a-triaza-phenanthren-3-one trifluoroacetic acid] were 1000 to 10000 nM, below 250 nM and 250 to 1000 nM.
On to `CC[C@H]1CN(C)CCN1c1cc2c(cc1-c1ccccc1F)OCC1=NNC(=O)[C@@H](C)N12` [Example 234], for which the figures for the IC50 in experiment [1] and in experiment [2] were 1000 to 10000 nM and below 250 nM, respectively. Further, in experiment [3], the EC50 was 250 to 1000 nM.
Taken in the same sequence, the figures for `CC(C)c1cc2c(cc1OC1(C)CNC1)N1C(=NNC(=O)[C@H]1C)CO2` (single isomer, unassigned) [Example 121-2, trifluoroacetic acid] were 1000 to 10000 nM, 250 to 1000 nM and 1000 to 10000 nM.
Taken in the same sequence, the figures for `C[C@@H]1C(=O)NN=C2COc3ccc([C@H]4CCN[C@H](Cc5ccccc5)C4)cc3N21` (single isomer, unassigned) [Example 109-1, trifluoroacetic acid] were 1000 to 10000 nM, below 250 nM and below 250 nM.
The like results for `COCCN1CC(C)(N(C)c2cc3c(cc2-c2ccccc2F)OCC2=NNC(=O)[C@@H](C)N23)C1` [Example 192] were, in that order, 250 to 1000 nM, below 250 nM and below 250 nM.
With `COc1ccccc1-c1cc2c(cc1NC1CNC1)N1C(=NNC(=O)C1C)CO2` (racemic) [Example 34], the values for the IC50 in experiment [1] and in experiment [2] were 1000 to 10000 nM and below 250 nM, respectively. For the same compound, in experiment [3], the EC50 fell in the range of 250 to 1000 nM.
Consider `CC1C(=O)NN=C2COc3cc(-c4ccccc4)c(N(C)C4(C)CN(C5COC5)C4)cc3N21` (stereo not drawn) [Example 196], for which the IC50 in experiment [1] was 1000 to 10000 nM; in experiment [2], below 250 nM. Besides, the EC50 in experiment [3] is 1000 to 10000 nM.
Regarding `CC1C(=O)NN=C2COc3cc4ccn(C5CCCNC5)c4cc3N21` (stereo not drawn) [Example 152], the IC50 is 1000 to 10000 nM in experiment [1] and below 250 nM in experiment [2]. In addition, the EC50 in experiment [3] is 250 to 1000 nM.
For `C[C@@H]1C(=O)NN=C2COc3cc4ccn([C@]5(C)CCNC5)c4cc3N21` [Example 164, (R)-1-Methyl-10-((R)-3-methyl-pyrrolidin-3-yl)-3,5-dihydro-10H-6-oxa-3,4,10,11b-tetraaza-cyclopenta[b]phenanthren-2-one], the IC50 was 1000 to 10000 nM in experiment [1] and below 250 nM in experiment [2]. The EC50 in experiment [3] is 250 to 1000 nM.
With `CC1C(=O)NN=C2COc3cc(C(F)(F)F)c(OC4(C)CNC4)cc3N21` (stereo not drawn) [Example 107, 4-Methyl-6-(3-methyl-azetidin-3-yloxy)-7-trifluoromethyl-2,10-dihydro-9-oxa-1,2,4a-triaza-phenanthren-3-one trifluoroacetic acid], the IC50 in experiment [1] and in experiment [2] was below 250 nM each time. For the same compound, the EC50 in experiment [3] was below 250 nM.
Regarding `C[C@@H]1C(=O)NN=C2COc3cc4ccn([C@@H]5CCNC5)c4cc3N21` [Example 151-2, (R)-1-Methyl-10-(R)-pyrrolidin-3-yl-3,5-dihydro-10H-6-oxa-3,4,10,11b-tetraaza-cyclopenta[b]phenanthren-2-one hydrochloric acid], the IC50 is 1000 to 10000 nM in experiment [1] and below 250 nM in experiment [2]. Also, the EC50 in experiment [3] fell in the range of 250 to 1000 nM.
`C[C@@H]1C(=O)NN=C2COc3cc(-c4ccccc4Cl)c(C4CCNCC4)cc3N21` [Example 210]: the IC50 in experiment [1] was 1000 to 10000 nM; in experiment [2] it was below 250 nM. Moreover, the EC50 in experiment [3] was below 250 nM.
`C[C@@H]1C(=O)NN=C2COc3cc(-c4ccc(F)cc4F)c(NC4CNC4)cc3N21` [Example 4]: the IC50 in experiment [1] was 1000 to 10000 nM; in experiment [2], below 250 nM. The EC50 in experiment [3] was below 250 nM.
As for `CCC1(n2ccc3cc4c(cc32)N2C(=NNC(=O)[C@H]2C)CO4)CNC1` [Example 150], the IC50 is 1000 to 10000 nM in experiment [1] and below 250 nM in experiment [2]. The EC50 in experiment [3] was 250 to 1000 nM.
For the compound `CC1C(=O)NN=C2COc3cc4ccn(C5CN(C)C5)c4cc3N21` (stereo not drawn) [compound 161], the IC50 in experiment [1] is 1000 to 10000 nM; in experiment [2], below 250 nM. For the same compound, the EC50 in experiment [3] lay in the range of 250 to 1000 nM.

For the origin of these results see patent US9115151B2, “Substituted 2,10-dihydro-9-oxa-1,2,4A-triazaphenanthren-3-ones and uses thereof” (AbbVie Inc., priority 2012, dated 2015).
